From PubChem BioAssay (NCI)
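Growth conditions: 96-well plates. Treatment: test compound, 48 hours, 5 concentrations. Analysis: linear interpolation between bracketing concentrations; unreached endpoints set to highest concentration. TGI denotes the concentration required for complete inhibition of growth.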

How the values were obtained:
Assay in all cases: growth of human tumour cells (NCI), 48 h
HOP-92 NSCLC = system: HOP-92 NSCLC
HOP-62 NSCLC = system: HOP-62 NSCLC
IGROV1 ovarian = system: IGROV1 ovarian
MDA-N = system: MDA-N
EKVX NSCLC = system: EKVX NSCLC
SK-OV-3 ovarian = system: SK-OV-3 ovarian
SK-MEL-5 melanoma = system: SK-MEL-5 melanoma
DU-145 prostate = system: DU-145 prostate
SK-MEL-28 melanoma = system: SK-MEL-28 melanoma
MCF7 breast = system: MCF7 breast
OVCAR-8 ovarian = system: OVCAR-8 ovarian
PC-3 prostate = system: PC-3 prostate
MDA-MB-435 = system: MDA-MB-435
UACC-62 melanoma = system: UACC-62 melanoma
SW-620 colon = system: SW-620 colon
HCC-2998 colon = system: HCC-2998 colon
TK-10 renal = system: TK-10 renal
RPMI-8226 leukemia = system: RPMI-8226 leukemia
SN12C renal = system: SN12C renal
SNB-19 CNS = system: SNB-19 CNS
CAKI-1 renal = system: CAKI-1 renal
SF-268 CNS = system: SF-268 CNS
NCI-H23 lung = system: NCI-H23 lung
SR leukemia = system: SR leukemia
MDA-MB-231 breast = system: MDA-MB-231 breast
OVCAR-4 ovarian = system: OVCAR-4 ovarian
A549 NSCLC = system: A549 NSCLC
SNB-75 CNS = system: SNB-75 CNS
LOX IMVI melanoma = system: LOX IMVI melanoma
MOLT-4 leukemia = system: MOLT-4 leukemia
HT29 colon = system: HT29 colon
BT-549 breast = system: BT-549 breast
NCI/ADR-RES ovarian = system: NCI/ADR-RES ovarian
CCRF-CEM leukemia = system: CCRF-CEM leukemia
NCI-H460 lung = system: NCI-H460 lung
SF-539 CNS = system: SF-539 CNS
KM12 colon = system: KM12 colon
ACHN renal = system: ACHN renal
K-562 leukemia = system: K-562 leukemia
NCI-H522 lung = system: NCI-H522 lung
COLO 205 colon = system: COLO 205 colon
HS 578T breast = system: HS 578T breast
SF-295 CNS = system: SF-295 CNS
M14 melanoma = system: M14 melanoma
U251 CNS = system: U251 CNS
HL-60(TB) leukemia = system: HL-60(TB) leukemia
UO-31 renal = system: UO-31 renal
T-47D breast = system: T-47D breast
OVCAR-3 ovarian = system: OVCAR-3 ovarian
A498 renal = system: A498 renal
OVCAR-5 ovarian = system: OVCAR-5 ovarian
786-0 renal = system: 786-0 renal
MALME-3M melanoma = system: MALME-3M melanoma
HCT-116 colon = system: HCT-116 colon
HCT-15 colon = system: HCT-15 colon
SK-MEL-2 melanoma = system: SK-MEL-2 melanoma
NCI-H226 lung = system: NCI-H226 lung

`COC(=O)c1c2c(c3[nH]c4ccccc4c3c1C(=O)OC)C(=O)C1=C(C2=O)C2(Cl)C(Cl)C(Cl)C1(Cl)C2(Cl)Cl` (stereo not drawn) showed a TGI (HOP-92 NSCLC) of 3.68 µM, a TGI (HOP-62 NSCLC) of 21.7 µM and a TGI (IGROV1 ovarian) of 8.52 µM. For the same compound, the TGI (MDA-N) was 2.75 µM, the TGI (EKVX NSCLC) was over 100 µM and the TGI (SK-OV-3 ovarian) was 37 µM. The TGI (SK-MEL-5 melanoma) was 2.75 µM, the TGI (DU-145 prostate) was over 100 µM and the TGI (SK-MEL-28 melanoma) was 2.97 µM. The TGI (MCF7 breast) was 3.42 µM, the TGI (OVCAR-8 ovarian) was 5.28 µM and the TGI (PC-3 prostate) was 10.8 µM. For the same compound, the TGI (MDA-MB-435) was 3.09 µM, the TGI (UACC-62 melanoma) was 4.59 µM and the TGI (SW-620 colon) was 1.4 µM. The TGI (HCC-2998 colon) was 6.17 µM, the TGI (TK-10 renal) was 17.5 µM and the TGI (RPMI-8226 leukemia) was 5.09 µM. For the same compound, the TGI (SN12C renal) was 5.98 µM, the TGI (SNB-19 CNS) was 24.7 µM and the TGI (CAKI-1 renal) was 9.19 µM. The TGI (SF-268 CNS) was 6.84 µM, the TGI (NCI-H23 lung) was 4.04 µM and the TGI (SR leukemia) was 2.63 µM. It also gave a TGI (MDA-MB-231 breast) of 7.59 µM, a TGI (OVCAR-4 ovarian) of 6.31 µM and a TGI (A549 NSCLC) of over 100 µM. The TGI (SNB-75 CNS) was 6.84 µM, the TGI (LOX IMVI melanoma) was 3.91 µM and the TGI (MOLT-4 leukemia) was 3.67 µM. The TGI (HT29 colon) was 7.07 µM, the TGI (BT-549 breast) was 4.34 µM and the TGI (NCI/ADR-RES ovarian) was 7.19 µM. It also gave a TGI (CCRF-CEM leukemia) of 6.15 µM, a TGI (NCI-H460 lung) of 13.8 µM and a TGI (SF-539 CNS) of 4.51 µM. It also gave a TGI (KM12 colon) of 17.3 µM, a TGI (ACHN renal) of 4.6 µM and a TGI (K-562 leukemia) of 23.2 µM. The TGI (NCI-H522 lung) was 2.72 µM, the TGI (COLO 205 colon) was 3.19 µM and the TGI (HS 578T breast) was 20.8 µM. It also gave a TGI (SF-295 CNS) of 90.9 µM, a TGI (M14 melanoma) of 5.68 µM and a TGI (U251 CNS) of 7.48 µM. It also gave a TGI (HL-60(TB) leukemia) of 7.78 µM, a TGI (UO-31 renal) of 8.65 µM and a TGI (T-47D breast) of 16.3 µM. It also gave a TGI (OVCAR-3 ovarian) of 8.98 µM, a TGI (A498 renal) of 3.03 µM and a TGI (OVCAR-5 ovarian) of over 100 µM. It also gave a TGI (786-0 renal) of 8.07 µM, a TGI (MALME-3M melanoma) of 4.05 µM and a TGI (HCT-116 colon) of over 100 µM.

In the case of `COc1ccc2c3c1O[C@H]1C(=O)C=CC4(n5[nH]c(=O)n(-c6ccccc6)c5=O)C(C2)N(C)CCC314` (stereo partly drawn), the TGI (HOP-92 NSCLC) is reported as over 100 µM, the TGI (HOP-62 NSCLC) is reported as over 100 µM and the TGI (IGROV1 ovarian) is reported as over 100 µM. It also gave a TGI (MDA-N) of over 100 µM, a TGI (EKVX NSCLC) of over 100 µM and a TGI (SK-OV-3 ovarian) of over 100 µM. It also gave a TGI (SK-MEL-5 melanoma) of over 100 µM, a TGI (DU-145 prostate) of over 100 µM and a TGI (SK-MEL-28 melanoma) of over 100 µM. For the same compound, the TGI (MCF7 breast) was over 100 µM, the TGI (OVCAR-8 ovarian) was over 100 µM and the TGI (PC-3 prostate) was over 100 µM. It also gave a TGI (HCT-15 colon) of over 100 µM, a TGI (MDA-MB-435) of over 100 µM and a TGI (UACC-62 melanoma) of over 100 µM. The TGI (SW-620 colon) was over 100 µM, the TGI (TK-10 renal) was over 100 µM and the TGI (RPMI-8226 leukemia) was over 100 µM. For the same compound, the TGI (SN12C renal) was over 100 µM, the TGI (SNB-19 CNS) was over 100 µM and the TGI (CAKI-1 renal) was over 100 µM. For the same compound, the TGI (SF-268 CNS) was over 100 µM, the TGI (NCI-H23 lung) was over 100 µM and the TGI (SR leukemia) was over 100 µM. For the same compound, the TGI (MDA-MB-231 breast) was over 100 µM, the TGI (OVCAR-4 ovarian) was over 100 µM and the TGI (A549 NSCLC) was over 100 µM. For the same compound, the TGI (LOX IMVI melanoma) was over 100 µM, the TGI (MOLT-4 leukemia) was over 100 µM and the TGI (HT29 colon) was over 100 µM. It also gave a TGI (BT-549 breast) of over 100 µM, a TGI (NCI/ADR-RES ovarian) of over 100 µM and a TGI (CCRF-CEM leukemia) of over 100 µM. For the same compound, the TGI (SF-539 CNS) was over 100 µM, the TGI (KM12 colon) was over 100 µM and the TGI (SK-MEL-2 melanoma) was over 100 µM. The TGI (ACHN renal) was over 100 µM, the TGI (K-562 leukemia) was over 100 µM and the TGI (NCI-H522 lung) was over 100 µM. For the same compound, the TGI (COLO 205 colon) was over 100 µM, the TGI (HS 578T breast) was over 100 µM and the TGI (SF-295 CNS) was over 100 µM. For the same compound, the TGI (M14 melanoma) was over 100 µM, the TGI (U251 CNS) was over 100 µM and the TGI (HL-60(TB) leukemia) was over 100 µM. For the same compound, the TGI (NCI-H226 lung) was over 100 µM, the TGI (UO-31 renal) was over 100 µM and the TGI (T-47D breast) was over 100 µM. For the same compound, the TGI (OVCAR-3 ovarian) was over 100 µM, the TGI (A498 renal) was over 100 µM and the TGI (OVCAR-5 ovarian) was over 100 µM. For the same compound, the TGI (786-0 renal) was over 100 µM, the TGI (MALME-3M melanoma) was over 100 µM and the TGI (HCT-116 colon) was over 100 µM.
